Test results reported in US5219884A, “Immunosuppressant” (Taito Co., Ltd., priority 1990, dated 1993).
Read-outs that look alike come from different tables or passages of the source.

Assays:
[1] = tested on: mouse allogenic mixed lymphocyte reaction (BALB/c responder, C57BL/6 stimulator spleen cells); experiment: mouse allogenic mixed lymphocyte reaction (MLR), blastogenesis by 3H-thymidine uptake; assay type: cell-based; details: for inhibition at 0.001 µg/mL / inhibition at 0.01 µg/mL / inhibition at 0.1 µg/mL: Mus musculus, Lymphocyte, read-out: Suppression
Protocol: The immunosuppressive activity of the compounds (I) and their lactones was assayed by using mouse allogenic mixed lymphocyte reaction (hereinafter sometimes abbreviated as MLR). Mouse allogenic MLR was carried out by mixed culture of the BALB/c mouse (H-2^d) spleen cells as the responder cells and the mitomycin C-treated C57BL/6 (H-2^b) spleen cells as the stimulator cells in equal amounts.
The responder cells were prepared as follows: The spleen was resected from 5- to 6-week-old male BALB/c mice, and single cell suspension of spleen cells was prepared by using the RPMI1640 culture medium (containing 60 μg/ml of kanamycin sulfate, 2 mM of L-glutamine, 10 mM of N-2-hydroxyethylpiperazine-N'-2-ethanesulfonate (HEPES) and 0.1% sodium hydrogencarbonate) to which heat-inactivated fetal calf serum (hereinaftersometimes abbreviated as FCS) had been added to 5%. After hemolytic treatment, the cell suspension was adjusted to a concentration of 10^7 cells/ml by using the RPMI1640 culture medium supplemented with 10^-4 M 2-mercaptoethanol and 20% FCS, and was used as the responder cell suspension.
The stimulator cells were prepared as follows:
The spleen was resected from 5- to 6-week-old male C57BL/6 mice, and single cell suspension of spleen cells was prepared by using the RPMI1640 culture medium. After hemolytic treatment, the cells were treated with 40 μg/ml of mitomycin C at 37° C. for 60 minutes. After washing three times, the concentration of the cell suspension was adjusted to 10^7 cells/ ml by using the RPMI1640 culture medium supplemented with 10^-4 M 2-mercaptoethanol and 20% FCS, and was used as the stimulator cell suspension.
Fifty μl of the responder cell suspension, 50μl of the stimulator cell suspension prepared by the above method, and 100 μl of the test substance were placed in 96-well microculture plates, and were cultured at 37° C. in an atmosphere of 5% carbon dioxide for 4 days.
The blastogenesis of lymphocytes was assayed by a method of ^3 H-thymidine uptake as an index. That is, after termination of the culture, 0.5 μCi/well of ^3 H-thymidine was added and cultured for 4 hours. Cells were harvested by a cell-harvester, and the radioactivity incorporated into the cells was determined by a liquid scintillation counter to obtain the index of blastogenesis of lymphocytes in the mouse allogenic MLR. The suppression of the mouse allogenic MLR was evaluated by calculating the percent suppression by the following formula. [formula]
The test substance was dissolved in methanol or suspended in a mixture of methanol and acetic acid, and then diluted with the RPMI1640 culture medium.

[2] = cytotoxicity to mouse L929 cells; assay type: cell-based; details: mouse, l929 cells, read-out: Suppression
Protocol: (§1) Cytotoxicity to mouse L929 cells was assayed as follows:
(§2) L929 cells were suspended to the concentration of 1.5×10^5 cells/ml in the F12 culture medium supplemented with 10% FCS. One hundred μl of the suspension was added to each well of 96-well microculture plates, and cultured at 37° C. in an atmosphere of 5% carbon dioxide for 24 hours, to which 100 μl of the test solution was added and cultured for further 48 hours. After the culture, 100 μl of the supernatant was removed and the absorbancy at 550 nm was measured in the same way as the colormetry using MTT in Experimental Example 1. The percent suppression was calculated by the following formula used as the index of cytotoxicity. [formula]

mouse L929 cells = experiment: cytotoxicity to mouse L929 cells; assay type: cell-based; details: 550 nm
Protocol: as §1, §2

in vitro = assay type: cell-based, human; details: human, read-out: Suppression
Protocol: (§3) Cytotoxicity to human tumor cell lines was examined as follows:
(§4) Cells of human cell lines, K562, MOLT4, U937, HL60, KATOIII, KB, PC-6, PC-14 and CCRF-CEM were separately suspended to the concentration of 2×10^5 cells/ml in the RPMI1640 culture medium supplemented with 20% FCS. Fifty μl of this suspension was added to each well of 96-well microculture plates to which 50 μl of the test solution had been added. After culturing at 37° C. in an atmosphere of 5% carbon dioxide for 72 hours, the absorbancy at 550 nm was measured in the same way as the colorimetry using MTT in Experimental Example 1, and the percent suppression was calculated in the same manner as in Experimental Example 14, which was used as the index of cytotoxicity.

CCRF-CEM = experiment: in vitro; assay type: cell-based, human
Protocol: as §3, §4

HL60 = experiment: in vitro; assay type: cell-based, human
Protocol: as §3, §4

K562 = experiment: in vitro; assay type: cell-based, human
Protocol: as §3, §4

KB = experiment: in vitro; assay type: cell-based, human
Protocol: as §3, §4

PC-14 = experiment: in vitro; assay type: cell-based, human
Protocol: as §3, §4

U937 = experiment: in vitro; assay type: cell-based, human
Protocol: as §3, §4

[3] = cytotoxicity to tumor cell line MOLT4; assay type: cell-based, human; details: human, molt4 cells, read-out: Suppression
Protocol: as §3, §4

MOLT4 = experiment: cytotoxicity to tumor cell line MOLT4; assay type: cell-based, human
Protocol: as §3, §4

Compound `CCCCCCC(=O)CCCCCC/C=C/CC1OC(=O)C(CO)(NC(C)=O)C1O` (stereo not drawn) [Example 11] has a 3H-thymidine uptake ([1]; 0.001 μg/ml) of 32597 cpm, a 3H-thymidine uptake ([1]; 0.01 μg/ml) of 30777 cpm and a 3H-thymidine uptake ([1]; 0.1 μg/ml) of 23430 cpm. The inhibition at 0.001 µg/mL ([1]; 0.001 μg/ml) was 0%, the inhibition at 0.01 µg/mL ([1]; 0.01 μg/ml) was 0% and the inhibition at 0.1 µg/mL ([1]; 0.1 μg/ml) was 18.2%. The cytotoxicity at 48 h ([2]; 1 μg/ml) was 0%, the cytotoxicity at 48 h ([2]; 10 μg/ml) was 0% and the cytotoxicity at 48 h ([2]; 100 μg/ml) was 91.8%. For the same compound, the Absorbancy (mouse L929 cells; 1 μg/ml) was 0.710, the Absorbancy (mouse L929 cells; 10 μg/ml) was 0.669 and the Absorbancy (mouse L929 cells; 100 μg/ml) was 0.047. For the same compound, the cytotoxicity at 72 h (in vitro; ccrf-cem cells, 0.1 μg/ml) was 0%, the cytotoxicity at 72 h (in vitro; ccrf-cem cells, 1.0 μg/ml) was 4.2% and the cytotoxicity at 72 h (in vitro; ccrf-cem cells, 10.0 μg/ml) was 12.9%. For the same compound, the cytotoxicity at 72 h (in vitro; hl60 cells, 0.1 μg/ml) was 9%, the cytotoxicity at 72 h (in vitro; hl60 cells, 1.0 μg/ml) was 12.6% and the cytotoxicity at 72 h (in vitro; hl60 cells, 10.0 μg/ml) was 27%. The cytotoxicity at 72 h (in vitro; k562 cells, 0.1 μg/ml) was 17.7%, the cytotoxicity at 72 h (in vitro; k562 cells, 1.0 μg/ml) was 12.5% and the cytotoxicity at 72 h (in vitro; k562 cells, 10.0 μg/ml) was 34.5%. For the same compound, the cytotoxicity at 72 h (in vitro; kb cells, 0.1 μg/ml) was 7%, the cytotoxicity at 72 h (in vitro; kb cells, 1.0 μg/ml) was 5.8% and the cytotoxicity at 72 h (in vitro; kb cells, 10.0 μg/ml) was 30.1%. For the same compound, the cytotoxicity at 72 h (in vitro; pc-14 cells, 0.1 μg/ml) was 6.5%, the cytotoxicity at 72 h (in vitro; pc-14 cells, 1.0 μg/ml) was 12.7% and the cytotoxicity at 72 h (in vitro; pc-14 cells, 10.0 μg/ml) was 40%. It also gave a cytotoxicity at 72 h (in vitro; u937 cells, 0.1 μg/ml) of 0%, a cytotoxicity at 72 h (in vitro; u937 cells, 1.0 μg/ml) of 0% and a cytotoxicity at 72 h (in vitro; u937 cells, 10.0 μg/ml) of 23%. It also gave an Absorbancy (CCRF-CEM; 0.1 μg/ml) of 0.694, an Absorbancy (CCRF-CEM; 1.0 μg/ml) of 0.663 and an Absorbancy (CCRF-CEM; 10.0 μg/ml) of 0.603. It also gave an Absorbancy (HL60; 0.1 μg/ml) of 0.475, an Absorbancy (HL60; 1.0 μg/ml) of 0.456 and an Absorbancy (HL60; 10.0 μg/ml) of 0.381. For the same compound, the Absorbancy (K562; 0.1 μg/ml) was 0.317, the Absorbancy (K562; 1.0 μg/ml) was 0.337 and the Absorbancy (K562; 10.0 μg/ml) was 0.257. For the same compound, the Absorbancy (KB; 0.1 μg/ml) was 0.679, the Absorbancy (KB; 1.0 μg/ml) was 0.688 and the Absorbancy (KB; 10.0 μg/ml) was 0.510. It also gave an Absorbancy (PC-14; 0.1 μg/ml) of 0.443, an Absorbancy (PC-14; 1.0 μg/ml) of 0.413 and an Absorbancy (PC-14; 10.0 μg/ml) of 0.284. The Absorbancy (U937; 0.1 μg/ml) was 0.598, the Absorbancy (U937; 1.0 μg/ml) was 0.583 and the Absorbancy (U937; 10.0 μg/ml) was 0.449. For the same compound, the cytotoxicity at 72 h ([3]; 0.1 μg/ml) was 0%, the cytotoxicity at 72 h ([3]; 1.0 μg/ml) was 0% and the cytotoxicity at 72 h ([3]; 10.0 μg/ml) was 11.7%. For the same compound, the Absorbancy (MOLT4; 0.1 μg/ml) was 0.182, the Absorbancy (MOLT4; 1.0 μg/ml) was 0.150 and the Absorbancy (MOLT4; 10.0 μg/ml) was 0.128.
Compound `CCCCCCC(O)CCCCCC/C=C/CC(O)C(O)C(N)(CO)C(=O)O` (stereo not drawn) [Example 6] has a 3H-thymidine uptake ([1]; 0.001 μg/ml) of 16237 cpm, a 3H-thymidine uptake ([1]; 0.01 μg/ml) of 9276 cpm and a 3H-thymidine uptake ([1]; 0.1 μg/ml) of 3017 cpm. The inhibition at 0.001 µg/mL ([1]; 0.001 μg/ml) was 52.3%, the inhibition at 0.01 µg/mL ([1]; 0.01 μg/ml) was 85.4% and the inhibition at 0.1 µg/mL ([1]; 0.1 μg/ml) was 100%. For the same compound, the cytotoxicity at 48 h ([2]; 0.1 μg/ml) was 0%, the cytotoxicity at 48 h ([2]; 1 μg/ml) was 0% and the cytotoxicity at 48 h ([2]; 10 μg/ml) was 0%. It also gave an Absorbancy (mouse L929 cells; 0.1 μg/ml) of 0.732, an Absorbancy (mouse L929 cells; 1 μg/ml) of 0.714 and an Absorbancy (mouse L929 cells; 10 μg/ml) of 0.733. The cytotoxicity at 72 h (in vitro; ccrf-cem cells, 0.1 μg/ml) was 8%, the cytotoxicity at 72 h (in vitro; ccrf-cem cells, 1.0 μg/ml) was 9.1% and the cytotoxicity at 72 h (in vitro; ccrf-cem cells, 10.0 μg/ml) was 5.6%. For the same compound, the cytotoxicity at 72 h (in vitro; hl60 cells, 0.1 μg/ml) was 16%, the cytotoxicity at 72 h (in vitro; hl60 cells, 1.0 μg/ml) was 21% and the cytotoxicity at 72 h (in vitro; hl60 cells, 10.0 μg/ml) was 17%. It also gave a cytotoxicity at 72 h (in vitro; k562 cells, 0.1 μg/ml) of 1.6%, a cytotoxicity at 72 h (in vitro; k562 cells, 1.0 μg/ml) of 4.5% and a cytotoxicity at 72 h (in vitro; k562 cells, 10.0 μg/ml) of 3%. For the same compound, the cytotoxicity at 72 h (in vitro; kb cells, 0.1 μg/ml) was 0%, the cytotoxicity at 72 h (in vitro; kb cells, 1.0 μg/ml) was 0.3% and the cytotoxicity at 72 h (in vitro; kb cells, 10.0 μg/ml) was 3.2%. For the same compound, the cytotoxicity at 72 h (in vitro; pc-14 cells, 0.1 μg/ml) was 21.5%, the cytotoxicity at 72 h (in vitro; pc-14 cells, 1.0 μg/ml) was 14.6% and the cytotoxicity at 72 h (in vitro; pc-14 cells, 10.0 μg/ml) was 25.9%. The cytotoxicity at 72 h (in vitro; u937 cells, 0.1 μg/ml) was 14%, the cytotoxicity at 72 h (in vitro; u937 cells, 1.0 μg/ml) was 9.9% and the cytotoxicity at 72 h (in vitro; u937 cells, 10.0 μg/ml) was 10.1%. For the same compound, the Absorbancy (CCRF-CEM; 0.1 μg/ml) was 0.463, the Absorbancy (CCRF-CEM; 1.0 μg/ml) was 0.457 and the Absorbancy (CCRF-CEM; 10.0 μg/ml) was 0.475. It also gave an Absorbancy (HL60; 0.1 μg/ml) of 0.619, an Absorbancy (HL60; 1.0 μg/ml) of 0.589 and an Absorbancy (HL60; 10.0 μg/ml) of 0.627. For the same compound, the Absorbancy (K562; 0.1 μg/ml) was 0.823, the Absorbancy (K562; 1.0 μg/ml) was 0.798 and the Absorbancy (K562; 10.0 μg/ml) was 0.811. The Absorbancy (KB; 0.1 μg/ml) was 0.771, the Absorbancy (KB; 1.0 μg/ml) was 0.728 and the Absorbancy (KB; 10.0 μg/ml) was 0.707. The Absorbancy (PC-14; 0.1 μg/ml) was 0.372, the Absorbancy (PC-14; 1.0 μg/ml) was 0.405 and the Absorbancy (PC-14; 10.0 μg/ml) was 0.351. The Absorbancy (U937; 0.1 μg/ml) was 0.439, the Absorbancy (U937; 1.0 μg/ml) was 0.436 and the Absorbancy (U937; 10.0 μg/ml) was 0.435. It also gave a cytotoxicity at 72 h ([3]; 0.1 μg/ml) of 0.8%, a cytotoxicity at 72 h ([3]; 1.0 μg/ml) of 3.4% and a cytotoxicity at 72 h ([3]; 10.0 μg/ml) of 8.5%. The Absorbancy (MOLT4; 0.1 μg/ml) was 0.615, the Absorbancy (MOLT4; 1.0 μg/ml) was 0.599 and the Absorbancy (MOLT4; 10.0 μg/ml) was 0.567.
